According to publication PMC9681820, “A PDE10A inhibitor CPL500036 is a novel agent modulating striatal function devoid of most neuroleptic side-effects” (Frontiers in Pharmacology, 2022):

Legend:
[1] = Hepatocyte stability assay; type: in vitro ADME; conditions: data not shown, n = 6
other PDE family members = test system: other PDE family members; set-up: method as in Moszczyński-Pętkowski et al., 2018; conditions: at a concentration of 100x IC50; ref Moszczyński-Pętkowski et al., 2018; cited from earlier work
[2] = test system: benzodiazepine receptor (GABAA); experiment: SafetyScreen44 radioligand binding; set-up: species or system rat; conditions: 1 μM; agonist radioligand
Procedure: The SafetyScreen44® assay was carried out by Eurofins (Poitiers, France) according to the service-provider’s protocol. CPL500036 (1 µM) was tested against a panel of […] potential off-targets proteins, including G protein-coupled receptors (GPCRs), transporters, ion channels, nuclear receptors kinases and other non-kinase enzymes, by use of a set of the binding assays.
Binding of CPL500036 was calculated as the percent binding inhibition of a radioactively labeled ligand specific for each target. Enzyme inhibition of CPL500036 was calculated as the percent inhibition of the activity of the control enzyme. “No interaction” was denoted if inhibition ≤ 25% of specific binding of the control. Determination of muscarinic acetylcholine receptor (M2) activity induced by CPL500036 (antagonism and agonism) was undertaken in human recombinant CHO cells by measurement of the intracellular cAMP level according to the service-provider’s protocol. IC50 (concentration causing a half-maximal inhibition of specific binding of the control) or EC50 (concentration causing a half-maximal response of specific binding of the control) and the Hill coefficient were determined by non-linear regression analysis of the competition curves generated with mean replicate values using Hill-equation curve fitting with software developed at Cerep (Celle-Lévescault, France).

MTT cytotoxicity assay = type: cell-based; conditions: human, n = 3
Procedure: The cytotoxicity of CPL500036 was evaluated in human non-small-cell lung cancer (NCI-H1299, ATCC® CRL-5803™), human hepatocellular carcinoma (Hep G2 [HEPG2], ATCC® HB-8065™) and human neuroblastoma (SH-SY5Y, ECACC, 94030304) cells using the 3-(4,5-dimethylthiazol-2-yl)-2,5-diphenyltetrazolium bromide (MTT) assay (Invitrogen, Carlsbad, CA, United States). Cells were seeded in an appropriate complete growth medium (following manufacturer recommendations) onto 96-well plates. After overnight incubation (37°C, 5% CO2) the medium was replaced with fresh medium (100 μl/well) containing the desired concentration of CPL500036 (8 nM–60 μM, diluent factor = 3), positive control or vehicle control (1% dimethyl sulfoxide (DMSO)) followed by incubation for 72 h (37°C, 5% CO2). Then, 25 μl of filtered (filter size = 0.22 μm) MTT solution (12 mM) in phosphate-buffered saline (PBS) was added to each well, including blank control (medium without cells) followed by incubation for 2 h (37°C, 5% CO2). After that, formazan crystals were dissolved in DMSO (100 μl/well). The absorbance was measured at 540 nm (A540, substrate wavelength) and 690 nm (A690, reference wavelength) using an automatic microplate reader (Multiskan™ GO; ThermoFisher Scientific). The metabolic activity of cells in the presence of vehicle control (1% DMSO) was considered to be 100%, and we calculated the difference between A540 and A690. IC50 was calculated using Prism 7.05.

[3] = test system: Salmonella typhimurium TA1537; experiment: Ames test; conditions: CPL500036 5000µg/plate, n=3
[4] = Pharmacokinetics after oral gavage in dogs (plasma); type: in vivo; conditions: both sexes, Beagle, dog plasma, 1.5 mg/kg oral gavage, mean ± SD, n = 4
Procedure: The study was carried out in 40 male Wistar Han rats (∼10 weeks; Tri-City Academic Laboratory Animal Centre, Research and Services Centre, Medical University of Gdansk). Rats were fasted for 12 h (water was available at libitum) before administration and fed 4 h post-dose. Rats received CPL500036 (3 mg/kg per oral gavage). At each of eight time points (15 min, 30 min as well as 1 h, 2 h, 4 h, 7 h, 12 h, and 24 h), five rats were killed by exsanguination, and samples of blood and brain were harvested. Two male and two female Beagle dogs (10.5–13 months old, MediTox s.r.o., Konarovice, Czech Republic) received CPL500036 in a dose of 1.5 mg/kg per oral gavage. Blood was taken by venepuncture from v. cephalica antebrachii at twelve time points (0 min, 15 min, 30 min as well as 1 h, 2 h, 3 h, 4 h, 6 h, 8 h, 12 h, 24 h, and 48 h.
Blood was collected into tubes containing the anticoagulant K2EDTA and centrifuged (2,000 × g, 15 min, 4°C) to obtain plasma. Brain samples were homogenized in water. Plasma and brain homogenates were stored at −80°C until analyses. Acetonitrile (150 μl) spiked with internal standard (donepezil; MilliporeSigma) was added to 50 μl of each plasma homogenate or brain homogenate, respectively. The mixture was shaken vigorously for 2 min and then centrifuged (4,000 × g, 4 min, room temperature). Supernatants were injected into a high-performance liquid chromatography system (Infinity™ 1,260; Agilent Technologies, Santa Clara, CA, United States) with a Zorbax SB column ([…]; 1.8 μm; Agilent Technologies). The mobile phase was ammonium formate (20 mM, pH 3.0) and acetonitrile with 0.1% formic acid. The gradient chromatographic separation used a flow rate of 0.4 ml/min for 7.5 min at a nominal temperature of 30°C. Signal acquisition was undertaken for 5.5 min using of a triple quadrupole mass spectrometer (6,460 series; Agilent Technologies) with electrospray ionization (5500 V, 320°C). Multiple-reaction monitoring was applied to detect the following transitions of the m/z ratio: 342.0–220.9 and 342–235.9 for CPL500036; 380.5–362.9 and 380.5–243.5 for donepezil. The drug concentration was calculated from the ratio of the peak area response relative to the internal standard using a standard curve.

human = conditions: ref Janowska et al., 2019, manuscript in preparation; cited from earlier work
[5] = With metabolic activation (+S9 mix), 2AA 2µg/plate
[6] = Without metabolic activation (-S9 mix), 9AA 50µg/plate

For `Cc1ncc(C)n2nc(-c3ccn4cc(-c5ccccc5)nc4n3)nc12` [CPL500036, 7-[5,8-Dimethyl-(1,2,4)triazolo (1,5-a)pyrazin-2-yl]-2-phenylimidazo (1,2-a) pyrimidine], the active metabolites [1] is given as “no active metabolites were identified”, the “inhibition of other PDE family members” value (other PDE family members) is given as “didn’t inhibit other PDE family members” and the “% Inh (% inhibition of control specific binding)” value [2] is given as −27.7%. The IC50 at 72 h (MTT cytotoxicity assay; HepG2 cells, HepG2, 72 h) was over 60 µM, the IC50 at 72 h (MTT cytotoxicity assay; NCI-H1299 cells, H1299, 72 h) was over 60 µM and the IC50 at 72 h (MTT cytotoxicity assay; SH-SY5Y cells) was over 60 µM. For the same molecule, the Mutation rate [3, 5] was 0.69, the “Revertants Mean±SD” value [3, 5] was 6.0±5.20 and the Mutation rate [3, 6] was 0.71. For the same molecule, the “Revertants Mean±SD” value [3, 6] was 4.0±4.36, the Cmax [4] was 98.3 ± 55.4 ng/mL and the Tmax [4] was 1.3 ± 0.5 h. For the same molecule, the half-life [4] was 2.1 ± 1.7 h, the AUC(0-t) ([4]; read-out: AUC(0–24h)) was 199 ± 106 ng·h/mL and the bioavailability in human (human) was “bioavailable in human”. For the same molecule, the “safety and tolerability in human” value (human) was “generally safe and well tolerated with no serious adverse effects”.
